Like-named read-outs stand apart in the source and are kept apart here.
Legend:
[1] = target: T1, 5-HT1A receptors (Rattus norvegicus, UniProt P19327); assay: 5-HT1A receptor binding experiments
T1 sequence (P19327 1-422): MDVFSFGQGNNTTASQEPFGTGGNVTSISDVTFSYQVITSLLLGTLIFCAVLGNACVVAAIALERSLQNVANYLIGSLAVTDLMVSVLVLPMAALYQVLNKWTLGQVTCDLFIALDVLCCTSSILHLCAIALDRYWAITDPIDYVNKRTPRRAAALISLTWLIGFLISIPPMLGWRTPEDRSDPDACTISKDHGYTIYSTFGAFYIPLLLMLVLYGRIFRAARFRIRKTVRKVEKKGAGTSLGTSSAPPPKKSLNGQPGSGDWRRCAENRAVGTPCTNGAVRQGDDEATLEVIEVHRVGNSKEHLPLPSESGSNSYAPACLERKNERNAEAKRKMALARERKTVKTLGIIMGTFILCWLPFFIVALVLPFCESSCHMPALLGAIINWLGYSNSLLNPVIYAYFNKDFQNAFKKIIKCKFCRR

[2] = target: T1, 5-HT1A receptors; conditions: read-out: 5-HT1A Ki ± SEM; cited from earlier work

SMILES	Ki [1] [nM]	Ki [2] [nM]
CC1CN(c2ccc3cc([N+](=O)[O-])ccc3n2)CCN1CCCCN1C(=O)CCCC1=O (stereo not shown) [Compound 3, 1-{4-[2-Methyl-4-(6-nitroquinolin-2-yl)piperazin-1-ylo]butyl}piperidine-2,6-dione]	711 ± 21	
O=C1CCCC(=O)N1CCCCN1CCN(c2ccc3cc([N+](=O)[O-])ccc3n2)CC1 [Compound 4, 1-{4-[4-(6-Nitro-quinolin-2-yl)-piperazin-1-yl]-butyl}-piperidine-2,6-dione]	10600 ± 3500	
O=C1CC2(CCCC2)CC(=O)N1CCCCN1CCN(c2ccc3cc([N+](=O)[O-])ccc3n2)CC1 [Compound 6, 8-{4-[4-(6-Nitro-quinolin-2-yl)-piperazin-1-yl]-butyl}-8-aza-spiro[4.5]decane-7,9-dione]	1100 ± 400	
CC1(C)CC(=O)N(CCCCN2CCN(c3ccc4cc([N+](=O)[O-])ccc4n3)CC2)C(=O)C1 [Compound 8, 4,4-Dimethyl-1-{4-[4-(6-nitro-quinolin-2-yl)-piperazin-1-yl]-butyl}-piperidine-2,6-dione]	2100 ± 400	
O=C1c2ccccc2C(=O)N1CCCCN1CCN(c2ccc3cc([N+](=O)[O-])ccc3n2)CC1 [Compound 9, 2-{4-[4-(6-Nitro-quinolin-2-yl)-piperazin-1-yl]-butyl}-isoindole-1,3-dione]	59000 ± 23100	
CC1(C)CC(=O)N(CCCCN2CCN(c3ccc4c(Cl)cccc4n3)CC2)C(=O)C1 [Compound 10, 1-{4-[4-(5-Chloroquinolin-2-yl)piperazin-1-yl]butyl}-4,4-di-methylopiperydine-2,6-dione]	1400 ± 100	
CC1CN(c2ccc3ccccc3n2)CCN1CCCCN1C(=O)c2ccccc2C1=O (stereo not shown) [Compound 12]		13
O=C1c2ccccc2C(=O)N1CCCCN1CCN(c2ccc3ccccc3n2)CC1 [Compound 13]		39
CC1CN(c2ccc3ccccc3n2)CCN1CCCN1C(=O)c2ccccc2C1=O (stereo not shown) [Compound 14]		275
CC1CN(c2ccc3ccccc3n2)CCN1CCCCN1C(=O)CCCC1=O (stereo not shown) [Compound 15]		37 ± 6
CC1CN(c2ccc3ccccc3n2)CCN1CCCCN1C(=O)CC2(CCCC2)CC1=O (stereo not shown) [Compound 16]		24 ± 3
CC1CN(c2ccc3ccccc3n2)CCN1CCCCN1C(=O)CC(C)(C)CC1=O (stereo not shown) [Compound 18]		15 ± 3
CC1(C)CC(=O)N(CCCCN2CCN(c3ccc4ccccc4n3)CC2)C(=O)C1 [Compound 19]		11 ± 2
